Measurements reported in patent publication US20230212788A1, “NEW METHOD FOR AUTOMATED ON-DEMAND BIOMOLECULAR ARRAY SYNTHESIS” (TECHNISCHE UNIVERSITAT DRESDEN, priority 2020, published 2023).

How the values were obtained:
[1] = molecular target: T1, streptavidin (Streptomyces avidinii, UniProt P22629); settings: order of magnitude only; cited from earlier work
[2] = molecular target: T1, streptavidin; test: Ligand array probed by fluorescently labelled streptavidin; format: binding; settings: FIG. 10
Source text: To increase the coupling yield, each coupling step was repeated two times. Same procedure was used in all amide bond formation reactions. After a capping step using 5% acetic anhydride/2% DIPEA, Fmoc was deprotected by immersing the glass slide in piperidine solution (DMF:ethanol 1:1). All amino groups not in the spotted area were acetylated in the first capping step. Therefore, no amide bond formation would be possible in these area in the following synthesis. The array was then probed by fluorescently labelled streptavidin or CypA (FIGS. 10 and 11). […] At this screening condition, the protein cannot distinguish between pM and low nM binders, while it can distinguish these two strong binders from the weaker µM binder iminobiotin.

[3] = test system: calcineurin; test: Array incubated with fluorescently labelled calcineurin; format: binding; settings: FIG. 13
Procedure: In order to probe protein-peptide interactions, a peptide was synthesized on the amphiphilic surface. The known calcineurin-binding peptide PVIVIT (SEQ ID NO: 13) and CsA1-COOH were synthesized on the surface. The glass slide was then incubated with fluorescently labelled calcineurin. […] Therefore, the on-demand peptide array synthesis technology can be used to investigate specific protein-peptide interaction.

[4] = test system: L929 cells; test: Adhesion of L929 cells to peptides synthesized as array; format: cell-based; settings: array without removing the lipophilic group, FIG. 16
Source text: There were synthesized cell adhesive peptide RGDSP (SEQ ID NO: 180) and its mutant GGDSP (SEQ ID NO: 179) as array and investigated their effects on the adhesion to L929 cells. As the chitosan hydrogel coating provides a favorable surface for the adhesion of many types of cells, including L929 cells, the array has been synthesized without removing the lipophilic group. […] (FIG. 16) Therefore, the array technology can be used not only for protein-based high throughput screening, but also for developing novel biomaterials as well as cellular assays.

[5] = molecular target: cyclophilin A (CypA) (Homo sapiens, UniProt P62937); settings: array probed by fluorescently labelled CypA, FIG. 11
Chain of cyclophilin A (CypA) (P62937 whole entry, species assumed): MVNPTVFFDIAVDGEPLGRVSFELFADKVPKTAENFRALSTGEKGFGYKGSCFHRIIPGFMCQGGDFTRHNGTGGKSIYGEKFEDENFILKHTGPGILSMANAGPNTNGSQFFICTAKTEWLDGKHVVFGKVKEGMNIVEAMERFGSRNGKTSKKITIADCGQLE

T1 sequence (P22629 25-183): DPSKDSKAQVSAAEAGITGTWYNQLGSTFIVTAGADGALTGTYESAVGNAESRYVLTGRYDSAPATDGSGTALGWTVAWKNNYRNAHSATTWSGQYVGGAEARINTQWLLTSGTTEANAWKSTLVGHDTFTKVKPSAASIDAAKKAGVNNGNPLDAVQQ

Molecule	Kd values / dissociation constant to streptavidin [1]	adhesion to L929 cells [4]	further results
N=C1N[C@H]2[C@H](CS[C@H]2CCCCC(=O)O)N1 [iminobiotin]	µM	–	fluorescent signal on spot [2]: much weaker than those of biotin and desthiobiotin
PVIVIT: known calcineurin-binding peptide PVIVIT	–	–	binding of calcineurin to spot [3]: can bind specifically
RGDSP: cell adhesive peptide RGDSP	–	strong adhesion	–
GGDSP: mutant of cell adhesive peptide RGDSP	–	poor adhesion	–
C[C@@H]1NC(=O)N[C@@H]1CCCCCC(=O)O [desthiobiotin]	low nM	–	–
O=C(O)CCCC[C@@H]1SC[C@@H]2NC(=O)N[C@@H]21 [Biotin, biotin]	–	–	binding of CypA to spot [5]: not
